Experimental data taken from patent publication US20080312255A1 (ASTRAZENECA AB, priority 2007, published 2008).

Molecular target: S. aureus GyrB ATPase (Staphylococcus aureus, UniProt P0A0K8)
Assay: S. aureus GyrB ATPase inhibition (ammonium molybdate/malachite green phosphate detection)
Assay type: biochemical
Details: compound concentration of 1 μM
In short: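 E. coli GyrA and S. aureus GyrB (250 pM each) with sheared salmon sperm DNA and 250 μM ATP, pH 7.5 Hepes buffer. Released phosphate detected by malachite green/ammonium molybdate at 650 nm; percent inhibition at 1 μM compound unless noted, normalized to 2% DMSO (0%) and EDTA (100%) controls.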

Chain of S. aureus GyrB ATPase (P0AES4 whole entry): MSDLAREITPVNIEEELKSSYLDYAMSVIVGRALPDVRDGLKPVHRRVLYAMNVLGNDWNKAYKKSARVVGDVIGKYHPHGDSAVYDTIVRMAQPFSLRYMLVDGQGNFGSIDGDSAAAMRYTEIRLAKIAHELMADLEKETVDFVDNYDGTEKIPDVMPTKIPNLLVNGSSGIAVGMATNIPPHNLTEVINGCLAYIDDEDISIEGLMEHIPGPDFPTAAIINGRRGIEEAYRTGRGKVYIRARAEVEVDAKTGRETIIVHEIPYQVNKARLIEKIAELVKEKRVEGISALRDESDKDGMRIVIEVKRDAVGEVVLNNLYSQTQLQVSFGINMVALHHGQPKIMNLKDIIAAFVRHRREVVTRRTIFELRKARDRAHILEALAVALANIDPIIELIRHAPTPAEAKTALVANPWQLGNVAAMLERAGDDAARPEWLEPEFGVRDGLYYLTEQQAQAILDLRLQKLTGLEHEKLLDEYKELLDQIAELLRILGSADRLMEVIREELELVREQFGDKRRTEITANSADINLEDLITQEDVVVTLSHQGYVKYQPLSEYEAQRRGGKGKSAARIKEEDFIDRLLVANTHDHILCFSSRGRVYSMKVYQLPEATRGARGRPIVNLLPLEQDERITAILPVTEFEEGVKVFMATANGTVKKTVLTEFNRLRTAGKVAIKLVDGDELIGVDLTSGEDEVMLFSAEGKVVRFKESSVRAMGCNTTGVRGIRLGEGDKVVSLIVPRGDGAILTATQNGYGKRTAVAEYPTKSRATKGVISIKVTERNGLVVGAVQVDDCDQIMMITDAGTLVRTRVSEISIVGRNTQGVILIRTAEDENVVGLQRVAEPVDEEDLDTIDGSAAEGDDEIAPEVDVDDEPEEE
Chain of S. aureus GyrB ATPase (P0A0K8 whole entry): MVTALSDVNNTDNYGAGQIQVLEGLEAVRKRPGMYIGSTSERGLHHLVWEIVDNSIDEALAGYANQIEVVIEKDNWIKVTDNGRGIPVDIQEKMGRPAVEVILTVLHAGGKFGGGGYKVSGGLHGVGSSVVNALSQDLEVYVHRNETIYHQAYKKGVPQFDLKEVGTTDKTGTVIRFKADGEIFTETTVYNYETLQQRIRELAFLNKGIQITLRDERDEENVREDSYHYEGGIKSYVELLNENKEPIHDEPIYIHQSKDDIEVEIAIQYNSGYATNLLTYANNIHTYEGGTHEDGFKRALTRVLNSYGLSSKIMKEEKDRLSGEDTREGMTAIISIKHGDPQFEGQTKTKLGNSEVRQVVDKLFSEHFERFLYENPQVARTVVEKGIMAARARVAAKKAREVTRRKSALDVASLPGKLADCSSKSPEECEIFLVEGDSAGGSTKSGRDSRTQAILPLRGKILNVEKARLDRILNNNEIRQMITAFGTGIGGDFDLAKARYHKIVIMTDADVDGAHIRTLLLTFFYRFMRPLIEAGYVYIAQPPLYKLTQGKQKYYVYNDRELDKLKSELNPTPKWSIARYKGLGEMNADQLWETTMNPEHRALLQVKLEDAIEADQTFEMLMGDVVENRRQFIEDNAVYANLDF

| Structure (SMILES) | inhibition at 1 µM |
| --- | --- |
| Cc1[nH]c(C(=O)N[C@@H]2CCN(c3nc(-c4ncnn4C)c(C(=O)O)s3)C[C@@H]2OCc2ccccc2)c(Cl)c1Cl [Example 141, 2-[(3S,4R)-3-(benzyloxy)-4-{[(3,4-dichloro-5-methyl-1H-pyrrol-2-yl)carbonyl]amino}piperidin-1-yl]-4-(1-methyl-1H-1,2,4-triazol-5-yl)-1,3-thiazole-5-carboxylic acid] | 116% |
| COCCn1ccnc1-c1nc(N2CC[C@@H](NC(=O)c3[nH]c(C)c(Cl)c3Cl)[C@@H](OCc3ccccc3)C2)sc1C(=O)O [Example 143, 2-[(3S,4R)-3-(benzyloxy)-4-{[(3,4-dichloro-5-methyl-1H-pyrrol-2-yl)carbonyl]amino}piperidin-1-yl]-4-[1-(2-methoxyethyl)-1H-imidazol-2-yl]-1,3-thiazole-5-carboxylic acid] | 98.8% |
| Cc1[nH]c(C(=O)N[C@@H]2CCN(c3nc(-c4ncccc4F)c(C(=O)O)s3)C[C@@H]2OCc2ccccc2)c(Cl)c1Cl [Example 144, 2-[(3S,4R)-3-(benzyloxy)-4-{[(3,4-dichloro-5-methyl-1H-pyrrol-2-yl)carbonyl]amino}piperidin-1-yl]-4-(3-fluoropyridin-2-yl)-1,3-thiazole-5-carboxylic acid] | 114% |
| Cc1[nH]c(C(=O)N[C@@H]2CCN(c3nc(-c4cnccn4)c(C(=O)O)s3)C[C@@H]2OCc2ccccc2)c(Cl)c1Cl [Example 145, 2-[(3S,4R)-3-(benzyloxy)-4-{[(3,4-dichloro-5-methyl-1H-pyrrol-2-yl)carbonyl]amino}piperidin-1-yl]-4-(pyrazin-2-yl)-1,3-thiazole-5-carboxylic acid] | 113% |
| Cc1[nH]c(C(=O)N[C@@H]2CCN(c3nc(-c4ncnn4C)c(C(=O)O)s3)C[C@@H]2OCc2ccccc2)cc1Cl [Example 146, 2-[(3S,4R)-3-(benzyloxy)-4-{[(4-chloro-5-methyl-1H-pyrrol-2-yl)carbonyl]amino}piperidin-1-yl]-4-(1-methyl-1H-1,2,4-triazol-5-yl)-1,3-thiazole-5-carboxylic acid] | 116% |
| COCCn1ccnc1-c1nc(N2CC[C@@H](NC(=O)c3cc(Cl)c(C)[nH]3)[C@@H](OCc3ccccc3)C2)sc1C(=O)O [Example 148, 2-[(3S,4R)-3-(benzyloxy)-4-{[(4-chloro-5-methyl-1H-pyrrol-2-yl)carbonyl]amino}piperidin-1-yl]-4-[1-(2-methoxyethyl)-1H-imidazol-2-yl]-1,3-thiazole-5-carboxylic acid] | 99.9% |
| Cc1[nH]c(C(=O)N[C@@H]2CCN(c3nc(-c4ncccc4F)c(C(=O)O)s3)C[C@@H]2OCc2ccccc2)cc1Cl [Example 149, 2-[(3S,4R)-3-(benzyloxy)-4-{[(4-chloro-5-methyl-1H-pyrrol-2-yl)carbonyl]amino}piperidin-1-yl]-4-(3-fluoropyridin-2-yl)-1,3-thiazole-5-carboxylic acid] | 103% |
| Cc1[nH]c(C(=O)N[C@@H]2CCN(c3nc(-c4cnccn4)c(C(=O)O)s3)C[C@@H]2OCc2ccccc2)cc1Cl [Example 150, 2-[(3S,4R)-3-(benzyloxy)-4-{[(4-chloro-5-methyl-1H-pyrrol-2-yl)carbonyl]amino}piperidin-1-yl]-4-(pyrazin-2-yl)-1,3-thiazole-5-carboxylic acid] | 102% |
| Cc1[nH]c(C(=O)N[C@@H]2CCN(c3nc(-c4ncnn4C)c(C(=O)O)s3)C[C@@H]2OCc2ccccc2)c(C#N)c1Cl [Example 151, 2-[(3S,4R)-3-(benzyloxy)-4-{[(4-chloro-3-cyano-5-methyl-1H-pyrrol-2-yl)carbonyl]amino}piperidin-1-yl]-4-(1-methyl-1H-1,2,4-triazol-5-yl)-1,3-thiazole-5-carboxylic acid] | 115% |
| COCCn1ccnc1-c1nc(N2CC[C@@H](NC(=O)c3[nH]c(C)c(Cl)c3C#N)[C@@H](OCc3ccccc3)C2)sc1C(=O)O [Example 153] | 98.6% |
